Laboratory results reported in publication PMC4641156, “Evaluation of a Novel Tc-99m Labelled Vitamin B12 Derivative for Targeting Escherichia coli and Staphylococcus aureus In Vitro and in an Experimental Foreign-Body Infection Model” (Molecular Imaging and Biology, 2015).

Assays:
[1] = tested on: transcobalamin II (TC II); parameters: method as in PMID 12831983, PMID 18413759; settings: cited from earlier work
[2] = tested on: S. aureus-infected cages; assay: Distribution into S. aureus-infected tissue cages and cage fluids; settings: for Cage—S. aureus, mean % ID/g tissue ± SD: explanted S. aureus-infected cage
Description: (§1) For in vivo studies, overnight cultures were prepared in 5 ml tryptic soy broth (TSB), incubated at 37 °C for 18–20 h. Bacterial suspensions were then washed three times, resuspended in 5 ml of sterile 0.9 % saline and diluted.
(§2) C57Bl/6 mice from in-house breeding or purchased from Charles River Laboratories GmbH (Sulzfeld, Germany) were housed in the Animal Facility of the Department of Biomedicine, University Hospital, Basel, Switzerland. Experiments were performed in accordance to the regulations of Swiss veterinary law. The Institutional Animal Care and Use Committee approved the study protocol. Drinking water and standard laboratory food pellets (CR) were provided ad libitum. To reduce interference of high vitamin B12 level in mice, animals randomized for Cbl biodistribution studies were fed with a vitamin B12-reduced diet (Provimi Kliba AG, Kaiseraugst, Switzerland) beginning at the age of 10 weeks. At the age of 12 weeks, one sterile polytetrafluoroethylene (Teflon) tube (32 × 10 mm), perforated by 130 regularly spaced holes of 1 mm diameter, was aseptically implanted into the back of each mouse, as previously described. Each cage was weighted and numbered before implantation. Two weeks after surgery, clips were removed from healed wounds, and sterility of the cage was confirmed by culture of aspirated cage fluid. On the following day, 5 × 10^5 CFU of E. coli or 5 × 10^6 CFU of S. aureus, resuspended in 200 μl of 0.9 % saline, were injected into cages. Sterile 0.9 % saline was injected in cages in animals used as negative controls.
(§3) Accumulation of radiopharmaceuticals in cage fluids was measured by resuspending 100 μl of aspirated fluid in 1 ml PBS and counted in a gamma counter. The percentage of injected dose (% IDTCF/ml) was calculated as measured CPM normalized per 1 ml cage fluid and divided by the CPM0 (injected dose). For determination of radiopharmaceutical biodistribution, mice were sacrificed with an intraperitoneal injection of 50–80 μl saline solution of pentothal (100 mg/ml). Blood was collected by cardiac puncture, and mice were perfused with 0.9 % saline for around 5 min. Following, tissues were dissected, weighted and collected into test tubes for γ-counter (blood, heart, liver, spleen, stomach, kidneys, lungs, intestine, muscle, bone and cage). The percentage of injected dose (% IDtissue/g) was calculated as CPM associated to each organ divided by its weight in grams and by the CPM0.

[3] = tested on: E. coli-infected cages; assay: Distribution into E. coli-infected tissue cages and cage fluids; settings: for Cage—E. coli, mean % ID/g tissue ± SD: explanted E. coli-infected cage
Description: as §1, §2, §3

[4] = Distribution into sterile (non-infected) tissue cages and cage fluids; settings: for Cage—sterile, mean % ID/g tissue ± SD: explanted sterile cage
Description: as §2, §3

[5] = tested on: S. aureus (ATCC 35556, methicillin susceptible); assay: In vitro binding of radiotracers to S. aureus (kinetics and competition with unlabeled Cbl); assay type: cell-based, Staphylococcus aureus
Description: Laboratory strains E. coli (ATCC 25922) and S. aureus (ATCC 35556, methicillin susceptible) were used. Bacteria were stored at −70 °C using a cryovial bead preservation system (Microbank, Pro-Lab Diagnostics, Richmond Hill, ON, Canada). Single cryovial beads were cultured overnight on Columbia sheep blood agar plates (Becton Dickinson, Heidelberg, Germany). For in vitro binding studies, overnight cultures were prepared in snap-lid tubes from 2 to 3 CFU in 5 ml of a synthetic minimal medium depleted of vitamin B12. After 18–20 h of incubation at 37 °C and 200 rpm, the cultures were diluted 1:100 in the same medium and further incubated at 37 °C to mid-logarithmic phase in sealed tubes. […] Five hundred microlitres of resuspended cultures were transferred to Eppendorf tubes and used for the measurement of binding to viable bacteria at 37 °C. For testing binding at 4 °C, bacterial suspension in PBS were let to equilibrate for 1 h at 4 °C before adding the radiopharmaceuticals. […] The bacterial suspensions were then centrifuged, resuspended in PBS and used for further studies. […] Colony counts remained <10 CFU/ml. Five hundred microlitres of each radiopharmaceutical solution was added to the 500 μl of bacterial suspensions. Binding assays were performed in quadruplicate vials per testing conditions. Afterwards, vials were centrifuged for 5 min at 13,500 rpm and 4 °C, and pellets were washed with 500 μl of cooled PBS. Supernatants and resuspended pellets were counted in a multi-well NaI γ-counter (Cobra; Packard, USA) and the counts per minute (CPM) recorded. The percentage of radiolabeled Cbl in the pellets was calculated as the percentage of the CPMp/CPM0 ratio per log10 8.0 CFU/ml, where CPMp were the CPM associated to pellets and CPM0 were the total CPM of the radiolabeled Cbl added per vial.

[6] = Biodistribution after i.v. injection in tissue cage mouse model (organs, tissues, cages overall)
Description: as §2
The two different experimental set-up of biodistribution were adapted to the known radiopharmaceutical binding/non-binding to plasma protein, persistence in organs and tissues and half-life of the labelling radioisotope.
as §3

[7] = tested on: E. coli (ATCC 25922); assay: In vitro binding of radiotracers to E. coli (kinetics and competition with unlabeled Cbl); assay type: cell-based, Escherichia coli
Description: Laboratory strains E. coli (ATCC 25922) and S. aureus (ATCC 35556, methicillin susceptible) were used. Bacteria were stored at −70 °C using a cryovial bead preservation system (Microbank, Pro-Lab Diagnostics, Richmond Hill, ON, Canada). Single cryovial beads were cultured overnight on Columbia sheep blood agar plates (Becton Dickinson, Heidelberg, Germany). For in vitro binding studies, overnight cultures were prepared in snap-lid tubes from 2 to 3 CFU in 5 ml of a synthetic minimal medium depleted of vitamin B12. After 18–20 h of incubation at 37 °C and 200 rpm, the cultures were diluted 1:100 in the same medium and further incubated at 37 °C to mid-logarithmic phase in sealed tubes. […] Five hundred microlitres of resuspended cultures were transferred to Eppendorf tubes and used for the measurement of binding to viable bacteria at 37 °C. For testing binding at 4 °C, bacterial suspension in PBS were let to equilibrate for 1 h at 4 °C before adding the radiopharmaceuticals. […] Supernatants and resuspended pellets were counted in a multi-well NaI γ-counter (Cobra; Packard, USA) and the counts per minute (CPM) recorded. The percentage of radiolabeled Cbl in the pellets was calculated as the percentage of the CPMp/CPM0 ratio per log10 8.0 CFU/ml, where CPMp were the CPM associated to pellets and CPM0 were the total CPM of the radiolabeled Cbl added per vial.

[8] = cage fluid, vs sterile controls

[^99mTc]PAMA(4)-cyanocobalamin [[^99mTc]PAMA(4)-Cbl]
Binding to the major Cbl transport protein TC II [1]: abolished binding
Time p.i. at which cage fluid % IDTCF/ml was significantly higher in S. aureus-infected than control mice [2, 8]: 4 h
Time p.i. at which cage fluid retention was significantly higher in E. coli-infected than control mice [3, 8]: 8 h
Cage fluid/blood ratio, non-infected mice ([4]; 24 h p.i.): 1.53 ± 0.30
Binding to killed S. aureus ([5]; ethanol-killed and/or heat-killed bacteria): no binding
In vitro binding to S. aureus, fold lower than [57Co]Cbl ([5]; relative to [57Co]Cbl): 3 fold

O=C([O-])CN(CCN(CC(=O)[O-])CC(=O)[O-])CCN(CC(=O)[O-])CC(=O)[O-].[99Tc+4] [[^99mTc]DTPA]
Blood, mean % ID/g tissue ± SD ([6]; 30 min after i.v. injection): 1.46 ± 1.10 % ID/g tissue
Blood, mean % ID/g tissue ± SD ([6]; 4 h after i.v. injection): 0.02 ± 0.10 % ID/g tissue
Blood, mean % ID/g tissue ± SD ([6]; 24 h after i.v. injection): 0.01 ± 0.00 % ID/g tissue
Bone, mean % ID/g tissue ± SD ([6]; 30 min after i.v. injection): 0.47 ± 0.30 % ID/g tissue
Bone, mean % ID/g tissue ± SD ([6]; 4 h after i.v. injection): 0.05 ± 1.50 % ID/g tissue
Bone, mean % ID/g tissue ± SD ([6]; 24 h after i.v. injection): 0.01 ± 0.00 % ID/g tissue
Heart, mean % ID/g tissue ± SD ([6]; 4 h after i.v. injection): 0.05 ± 0.00 % ID/g tissue
Heart, mean % ID/g tissue ± SD ([6]; 24 h after i.v. injection): 0.01 ± 0.00 % ID/g tissue
Intestine, mean % ID/g tissue ± SD ([6]; 30 min after i.v. injection): 0.90 ± 0.50 % ID/g tissue
Intestine, mean % ID/g tissue ± SD ([6]; 4 h after i.v. injection): 0.66 ± 0.20 % ID/g tissue
Intestine, mean % ID/g tissue ± SD ([6]; 24 h after i.v. injection): 0.02 ± 0.00 % ID/g tissue
Kidneys, mean % ID/g tissue ± SD ([6]; 30 min after i.v. injection): 3.92 ± 0.80 % ID/g tissue
Kidneys, mean % ID/g tissue ± SD ([6]; 4 h after i.v. injection): 0.93 ± 0.80 % ID/g tissue
Kidneys, mean % ID/g tissue ± SD ([6]; 24 h after i.v. injection): 0.15 ± 0.00 % ID/g tissue
Liver, mean % ID/g tissue ± SD ([6]; 30 min after i.v. injection): 0.33 ± 0.20 % ID/g tissue
Liver, mean % ID/g tissue ± SD ([6]; 4 h after i.v. injection): 0.09 ± 0.00 % ID/g tissue
Liver, mean % ID/g tissue ± SD ([6]; 24 h after i.v. injection): 0.02 ± 0.00 % ID/g tissue
Lungs, mean % ID/g tissue ± SD ([6]; 30 min after i.v. injection): 0.40 ± 0.20 % ID/g tissue
Lungs, mean % ID/g tissue ± SD ([6]; 4 h after i.v. injection): 0.06 ± 0.10 % ID/g tissue
Lungs, mean % ID/g tissue ± SD ([6]; 24 h after i.v. injection): 0.01 ± 0.00 % ID/g tissue
Muscle, mean % ID/g tissue ± SD ([6]; 30 min after i.v. injection): 0.34 ± 0.30 % ID/g tissue
Muscle, mean % ID/g tissue ± SD ([6]; 4 h after i.v. injection): 0.06 ± 1.10 % ID/g tissue
Muscle, mean % ID/g tissue ± SD ([6]; 24 h after i.v. injection): 0.00 ± 0.00 % ID/g tissue
Spleen, mean % ID/g tissue ± SD ([6]; 30 min after i.v. injection): 0.19 ± 0.00 % ID/g tissue
Spleen, mean % ID/g tissue ± SD ([6]; 4 h after i.v. injection): 0.06 ± 0.00 % ID/g tissue
Spleen, mean % ID/g tissue ± SD ([6]; 24 h after i.v. injection): 0.02 ± 0.00 % ID/g tissue
Stomach, mean % ID/g tissue ± SD ([6]; 30 min after i.v. injection): 1.67 ± 1.70 % ID/g tissue
Stomach, mean % ID/g tissue ± SD ([6]; 4 h after i.v. injection): 0.05 ± 1.10 % ID/g tissue
Stomach, mean % ID/g tissue ± SD ([6]; 24 h after i.v. injection): 0.02 ± 0.00 % ID/g tissue
Cage—S. aureus, mean % ID/g tissue ± SD ([2]; 4 h after i.v. injection): 0.40 ± 0.10 % ID/g tissue
Cage—S. aureus, mean % ID/g tissue ± SD ([2]; 24 h after i.v. injection): 0.05 ± 0.10 % ID/g tissue
Cage—E. coli, mean % ID/g tissue ± SD ([3]; 4 h after i.v. injection): 0.91 ± 0.15 % ID/g tissue
Cage—E. coli, mean % ID/g tissue ± SD ([3]; 24 h after i.v. injection): 0.15 ± 0.10 % ID/g tissue
Cage—sterile, mean % ID/g tissue ± SD ([4]; 30 min after i.v. injection): 2.88 ± 0.50 % ID/g tissue
Cage—sterile, mean % ID/g tissue ± SD ([4]; 4 h after i.v. injection): 0.34 ± 0.40 % ID/g tissue
Cage—sterile, mean % ID/g tissue ± SD ([4]; 24 h after i.v. injection): 0.01 ± 0.00 % ID/g tissue

O=C([O-])CC(O)(CC(=O)[O-])C(=O)[O-].[67Ga+3] [[^67Ga]citrate, Gallium-67 citrate]
Blood, mean % ID/g tissue ± SD ([6]; 72 h after i.v. injection): 0.46 ± 0.20 % ID/g tissue
Bone, mean % ID/g tissue ± SD ([6]; 72 h after i.v. injection): 10.99 ± 2.40 % ID/g tissue
Time to peak values in cages ([6]; cage fluids): ≤ 12 h
Heart, mean % ID/g tissue ± SD ([6]; 72 h after i.v. injection): 1.26 ± 0.10 % ID/g tissue
Intestine, mean % ID/g tissue ± SD ([6]; 72 h after i.v. injection): 2.00 ± 0.40 % ID/g tissue
Kidneys, mean % ID/g tissue ± SD ([6]; 72 h after i.v. injection): 10.73 ± 1.30 % ID/g tissue
Liver, mean % ID/g tissue ± SD ([6]; 72 h after i.v. injection): 7.44 ± 0.90 % ID/g tissue
Lungs, mean % ID/g tissue ± SD ([6]; 72 h after i.v. injection): 2.11 ± 0.30 % ID/g tissue
Muscle, mean % ID/g tissue ± SD ([6]; 72 h after i.v. injection): 0.69 ± 0.20 % ID/g tissue
Spleen, mean % ID/g tissue ± SD ([6]; 72 h after i.v. injection): 6.09 ± 0.70 % ID/g tissue
Stomach, mean % ID/g tissue ± SD ([6]; 72 h after i.v. injection): 3.73 ± 1.50 % ID/g tissue
Cage fluid/blood ratio, mice infected with S. aureus ([2]; 72 h p.i.): 3.56 ± 0.87
Cage—S. aureus, mean % ID/g tissue ± SD ([2]; 72 h after i.v. injection): 9.45 ± 2.30 % ID/g tissue
Cage fluid/blood ratio, mice infected with E. coli ([3]; 72 h p.i.): 5.41 ± 0.52
Cage—E. coli, mean % ID/g tissue ± SD ([3]; 72 h after i.v. injection): 3.99 ± 1.10 % ID/g tissue
Cage fluid/blood ratio, control (non-infected) mice ([4]; 72 h p.i.): 1.14 ± 0.21
Cage—sterile, mean % ID/g tissue ± SD ([4]; 72 h after i.v. injection): 1.45 ± 0.50 % ID/g tissue

cyanocobalamin [unlabeled Cbl]
Cold Cbl excess sufficient to reduce maximal [57Co]Cbl binding to E. coli to 50 % ([7]; 4 °C and ethanol-killed bacteria): 10 fold
Concentration of unlabeled Cbl required to show inhibition of [57Co]Cbl binding to E. coli ([7]; 37 °C, viable bacteria, 1 h simultaneous incubation): 1000 fold
Excess of unlabeled Cbl that decreased [99mTc]PAMA(4)-Cbl binding to S. aureus ([5]; S. aureus, 3 h): 1 fold
Excess of unlabeled Cbl that reduced [57Co]Cbl binding to S. aureus ([5]; both 37 and 4 °C, 3 h): 10 fold
